# Tests used:
# Assay in all cases: Caliper, Mobility shift assay off-chip
# [1] = target: AURKB (human) (UniProt Q96GD4)
# [2] = target: FES (human) (UniProt P07332)
# [3] = target: EPHB4 (human) (UniProt P54760)
# [4] = target: GSG2 (human) (UniProt Q8TF76)
# [5] = target: PGK1 (human) (UniProt P00558)
# [6] = target: INSRR (human) (UniProt P14616)
# [7] = target: CDK6 (human) (UniProt Q00534)
# [8] = target: NEK9 (human) (UniProt Q8TD19)
# [9] = target: ZAP70 (human) (UniProt P43403)
# [10] = target: NTRK1 (human) (UniProt P04629)
# [11] = target: PTK2B (human) (UniProt Q14289)
# [12] = target: NTRK2 (human) (UniProt Q16620)
# NTRK2 (human), sequence (Q16620 whole entry, looked up): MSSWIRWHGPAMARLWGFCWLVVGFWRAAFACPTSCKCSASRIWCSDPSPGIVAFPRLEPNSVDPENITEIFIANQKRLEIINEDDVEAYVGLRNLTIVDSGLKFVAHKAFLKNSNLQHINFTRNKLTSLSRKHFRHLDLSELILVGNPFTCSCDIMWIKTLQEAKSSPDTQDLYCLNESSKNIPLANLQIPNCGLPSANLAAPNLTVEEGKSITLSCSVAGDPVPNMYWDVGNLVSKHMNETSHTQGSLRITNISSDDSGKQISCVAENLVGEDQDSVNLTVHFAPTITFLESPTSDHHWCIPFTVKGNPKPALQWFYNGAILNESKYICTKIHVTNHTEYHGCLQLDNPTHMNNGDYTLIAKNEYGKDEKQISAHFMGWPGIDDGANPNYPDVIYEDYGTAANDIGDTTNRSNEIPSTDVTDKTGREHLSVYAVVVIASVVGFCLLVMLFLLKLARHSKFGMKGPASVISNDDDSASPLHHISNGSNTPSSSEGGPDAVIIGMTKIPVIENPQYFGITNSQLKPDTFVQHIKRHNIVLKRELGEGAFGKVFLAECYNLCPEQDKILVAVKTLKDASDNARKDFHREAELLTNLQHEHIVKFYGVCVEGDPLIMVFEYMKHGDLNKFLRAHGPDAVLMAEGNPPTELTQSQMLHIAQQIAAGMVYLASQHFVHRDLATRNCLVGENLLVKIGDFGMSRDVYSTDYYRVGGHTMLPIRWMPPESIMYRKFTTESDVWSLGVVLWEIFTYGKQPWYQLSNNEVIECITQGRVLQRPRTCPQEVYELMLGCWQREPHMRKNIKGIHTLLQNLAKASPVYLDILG
# [13] = target: FER (human) (UniProt P16591)
# [14] = target: PASK (human) (UniProt Q96RG2)
# [15] = target: MAPK14 (human) (UniProt Q16539)
# MAPK14 (human), sequence (Q16539 whole entry, looked up): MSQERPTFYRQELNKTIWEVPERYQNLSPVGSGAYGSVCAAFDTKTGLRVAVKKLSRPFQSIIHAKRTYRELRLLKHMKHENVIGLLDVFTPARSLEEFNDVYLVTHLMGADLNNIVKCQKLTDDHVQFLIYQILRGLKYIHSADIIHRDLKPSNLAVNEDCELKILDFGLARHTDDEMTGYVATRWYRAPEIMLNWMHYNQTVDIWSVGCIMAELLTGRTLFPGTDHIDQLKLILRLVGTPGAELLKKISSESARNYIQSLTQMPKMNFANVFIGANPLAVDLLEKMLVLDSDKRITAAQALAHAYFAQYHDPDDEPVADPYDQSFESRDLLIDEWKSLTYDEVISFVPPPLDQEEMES
# [16] = target: PRKD2 (human) (UniProt Q9BZL6)
# [17] = target: PRKCD (human) (UniProt Q05655)
# [18] = target: NTRK3 (human) (UniProt Q16288)
# [19] = target: PRKAA2 (human) (UniProt P54646)
# [20] = target: SIK1 (human) (UniProt P57059)
# SIK1 (human), sequence (P57059 whole entry, looked up): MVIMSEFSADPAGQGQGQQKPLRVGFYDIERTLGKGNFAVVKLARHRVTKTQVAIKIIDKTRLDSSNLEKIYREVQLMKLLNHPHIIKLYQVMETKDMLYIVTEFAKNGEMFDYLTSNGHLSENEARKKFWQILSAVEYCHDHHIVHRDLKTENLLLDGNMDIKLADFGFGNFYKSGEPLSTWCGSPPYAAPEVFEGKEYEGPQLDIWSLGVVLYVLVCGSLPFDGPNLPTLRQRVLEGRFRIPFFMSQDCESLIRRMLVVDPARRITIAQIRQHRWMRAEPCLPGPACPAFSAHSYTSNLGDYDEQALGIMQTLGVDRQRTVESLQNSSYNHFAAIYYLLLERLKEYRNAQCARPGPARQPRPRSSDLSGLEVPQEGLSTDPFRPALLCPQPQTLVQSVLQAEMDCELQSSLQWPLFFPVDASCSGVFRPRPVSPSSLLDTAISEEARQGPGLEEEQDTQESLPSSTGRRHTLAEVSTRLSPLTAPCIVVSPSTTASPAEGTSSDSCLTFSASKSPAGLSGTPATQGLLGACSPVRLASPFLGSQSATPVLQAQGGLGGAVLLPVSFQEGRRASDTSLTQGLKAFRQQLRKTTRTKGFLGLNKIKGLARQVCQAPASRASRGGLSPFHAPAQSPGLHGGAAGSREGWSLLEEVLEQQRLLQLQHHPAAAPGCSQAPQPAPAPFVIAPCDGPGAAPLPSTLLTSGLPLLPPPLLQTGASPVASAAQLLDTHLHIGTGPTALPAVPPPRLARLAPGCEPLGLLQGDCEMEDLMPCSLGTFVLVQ
# [21] = target: RPS6KA1 KD1 KD2 (human) (UniProt Q15418)
# [22] = target: PRKCI (human) (UniProt P41743)
# [23] = target: CDK4 (human) (UniProt P11802)
# CDK4 (human), sequence (P11802 whole entry, looked up): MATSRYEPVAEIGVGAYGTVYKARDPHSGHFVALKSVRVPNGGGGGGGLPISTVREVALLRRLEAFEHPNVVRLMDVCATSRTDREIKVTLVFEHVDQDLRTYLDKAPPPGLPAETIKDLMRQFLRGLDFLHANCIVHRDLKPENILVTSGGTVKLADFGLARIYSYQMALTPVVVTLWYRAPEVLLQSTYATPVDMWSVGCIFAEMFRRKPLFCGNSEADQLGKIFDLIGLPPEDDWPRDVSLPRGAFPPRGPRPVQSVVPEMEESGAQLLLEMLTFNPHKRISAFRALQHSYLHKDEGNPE
# [24] = target: CSK (human) (UniProt P41240)
# CSK (human), sequence (P41240 whole entry, looked up): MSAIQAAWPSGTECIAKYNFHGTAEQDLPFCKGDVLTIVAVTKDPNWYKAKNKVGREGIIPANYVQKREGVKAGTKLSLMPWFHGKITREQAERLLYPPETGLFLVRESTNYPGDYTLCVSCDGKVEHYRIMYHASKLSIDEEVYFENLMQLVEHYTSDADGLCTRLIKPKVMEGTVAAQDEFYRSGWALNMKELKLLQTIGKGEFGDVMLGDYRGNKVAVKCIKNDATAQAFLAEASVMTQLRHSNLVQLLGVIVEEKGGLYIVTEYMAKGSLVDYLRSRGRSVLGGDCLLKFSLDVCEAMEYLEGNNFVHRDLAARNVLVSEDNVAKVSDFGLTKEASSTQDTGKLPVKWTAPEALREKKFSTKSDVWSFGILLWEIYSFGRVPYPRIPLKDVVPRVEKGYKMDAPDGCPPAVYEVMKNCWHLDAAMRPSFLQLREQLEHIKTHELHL
# [25] = target: CSNK1G1 (human) (UniProt Q9HCP0)
# [26] = target: DAPK1 (human) (UniProt P53355)
# [27] = target: FGFR4 (human) (UniProt P22455)
# [28] = target: BRSK2 (human) (UniProt Q8IWQ3)
# [29] = target: TSSK2 (human) (UniProt Q96PF2)
# [30] = target: PHKG1 (human) (UniProt Q16816)
# [31] = target: EPHA1 (human) (UniProt P21709)
# EPHA1 (human), sequence (P21709 whole entry, looked up): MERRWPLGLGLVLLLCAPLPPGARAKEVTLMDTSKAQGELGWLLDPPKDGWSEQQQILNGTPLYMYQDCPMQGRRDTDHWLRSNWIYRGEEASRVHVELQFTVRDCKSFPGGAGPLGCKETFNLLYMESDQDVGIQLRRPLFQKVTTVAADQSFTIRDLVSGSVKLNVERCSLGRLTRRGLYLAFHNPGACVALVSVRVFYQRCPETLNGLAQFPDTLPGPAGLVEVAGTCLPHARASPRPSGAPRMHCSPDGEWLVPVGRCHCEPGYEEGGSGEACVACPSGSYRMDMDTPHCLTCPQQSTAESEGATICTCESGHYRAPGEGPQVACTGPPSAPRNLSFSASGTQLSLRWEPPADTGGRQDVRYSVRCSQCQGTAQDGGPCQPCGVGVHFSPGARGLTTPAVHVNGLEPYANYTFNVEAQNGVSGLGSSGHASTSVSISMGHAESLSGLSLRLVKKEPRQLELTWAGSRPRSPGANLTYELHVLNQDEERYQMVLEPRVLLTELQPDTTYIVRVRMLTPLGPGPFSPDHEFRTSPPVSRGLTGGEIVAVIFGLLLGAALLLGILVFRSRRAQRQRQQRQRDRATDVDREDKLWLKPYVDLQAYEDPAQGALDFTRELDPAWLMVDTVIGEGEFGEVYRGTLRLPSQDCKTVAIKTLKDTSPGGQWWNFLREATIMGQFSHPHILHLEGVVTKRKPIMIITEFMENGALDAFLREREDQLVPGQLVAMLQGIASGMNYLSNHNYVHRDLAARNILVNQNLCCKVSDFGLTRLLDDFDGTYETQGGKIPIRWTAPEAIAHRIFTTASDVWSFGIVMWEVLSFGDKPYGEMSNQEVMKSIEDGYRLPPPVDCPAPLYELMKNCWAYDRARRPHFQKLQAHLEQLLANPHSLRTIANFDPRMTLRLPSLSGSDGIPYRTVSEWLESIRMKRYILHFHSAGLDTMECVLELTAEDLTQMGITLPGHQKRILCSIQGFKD
# [32] = target: EPHA7 (human) (UniProt Q15375)
# [33] = target: TYRO3 (human) (UniProt Q06418)
# TYRO3 (human), sequence (Q06418 whole entry, looked up): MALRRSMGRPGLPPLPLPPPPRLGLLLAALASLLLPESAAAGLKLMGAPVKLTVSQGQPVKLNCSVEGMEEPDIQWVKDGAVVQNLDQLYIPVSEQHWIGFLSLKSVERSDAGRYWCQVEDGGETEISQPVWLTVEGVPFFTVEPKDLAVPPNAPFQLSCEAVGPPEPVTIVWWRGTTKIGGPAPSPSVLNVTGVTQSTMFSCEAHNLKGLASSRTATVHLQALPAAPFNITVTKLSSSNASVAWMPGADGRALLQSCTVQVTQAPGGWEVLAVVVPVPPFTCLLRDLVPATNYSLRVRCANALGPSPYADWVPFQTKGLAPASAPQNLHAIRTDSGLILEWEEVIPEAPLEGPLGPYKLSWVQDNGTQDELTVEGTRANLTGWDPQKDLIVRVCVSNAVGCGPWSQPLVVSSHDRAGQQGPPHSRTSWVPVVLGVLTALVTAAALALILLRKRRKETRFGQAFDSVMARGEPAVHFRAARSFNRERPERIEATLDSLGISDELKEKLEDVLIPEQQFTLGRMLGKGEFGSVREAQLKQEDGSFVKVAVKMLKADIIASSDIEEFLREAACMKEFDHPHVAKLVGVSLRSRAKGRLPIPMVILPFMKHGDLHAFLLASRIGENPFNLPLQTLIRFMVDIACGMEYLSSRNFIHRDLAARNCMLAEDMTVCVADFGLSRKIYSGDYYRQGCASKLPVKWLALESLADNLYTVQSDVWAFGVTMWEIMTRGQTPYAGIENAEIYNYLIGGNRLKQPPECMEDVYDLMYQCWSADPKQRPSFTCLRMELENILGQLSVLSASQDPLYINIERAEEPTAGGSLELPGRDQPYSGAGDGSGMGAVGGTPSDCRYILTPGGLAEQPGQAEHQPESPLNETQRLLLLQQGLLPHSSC
# AURKB (human), sequence (Q96GD4 whole entry, looked up): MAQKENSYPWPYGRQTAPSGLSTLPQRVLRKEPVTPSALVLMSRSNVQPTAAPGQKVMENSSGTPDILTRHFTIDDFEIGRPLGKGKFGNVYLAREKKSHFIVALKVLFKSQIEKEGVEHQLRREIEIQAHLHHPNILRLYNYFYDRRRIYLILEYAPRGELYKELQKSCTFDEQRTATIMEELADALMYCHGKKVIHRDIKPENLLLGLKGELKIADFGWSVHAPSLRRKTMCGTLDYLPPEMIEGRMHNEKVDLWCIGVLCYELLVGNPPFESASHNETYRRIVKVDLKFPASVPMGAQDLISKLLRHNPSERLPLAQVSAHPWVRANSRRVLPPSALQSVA
smiles,measurement,setting,value
CNC(=O)c1ccccc1Sc1ccc2c(/C=C/c3ccccn3)n[nH]c2c1,inhibition,[1]; compound 0.001 µM,5.9%
same,inhibition,[1]; compound 0.02 µM,48.4%
same,inhibition,[2]; compound 0.001 µM,2.9%
same,inhibition,[2]; compound 0.02 µM,1.5%
same,inhibition,[3]; compound 0.001 µM,-7.3%
same,inhibition,[3]; compound 0.02 µM,-5.5%
same,inhibition,[4]; compound 0.001 µM,-2.8%
same,inhibition,[4]; compound 0.02 µM,-0.9%
same,inhibition,[5]; compound 0.001 µM,-3.7%
same,inhibition,[5]; compound 0.02 µM,-5.3%
same,inhibition,[6]; compound 0.001 µM,-5.2%
same,inhibition,[6]; compound 0.02 µM,-8.3%
same,inhibition,[7]; compound 0.001 µM,3.5%
same,inhibition,[7]; compound 0.02 µM,4.4%
same,inhibition,[8]; compound 0.001 µM,-5.6%
same,inhibition,[8]; compound 0.02 µM,-3.7%
same,inhibition,[9]; compound 0.001 µM,-0.5%
same,inhibition,[9]; compound 0.02 µM,2.7%
same,inhibition,[10]; compound 0.001 µM,2.9%
same,inhibition,[10]; compound 0.02 µM,21.6%
same,inhibition,[11]; compound 0.001 µM,-4.6%
same,inhibition,[11]; compound 0.02 µM,-1.4%
same,inhibition,[12]; compound 0.001 µM,5.8%
same,inhibition,[12]; compound 0.02 µM,10.5%
same,inhibition,[13]; compound 0.001 µM,5.9%
same,inhibition,[13]; compound 0.02 µM,3.9%
same,inhibition,[14]; compound 0.001 µM,-6.3%
same,inhibition,[14]; compound 0.02 µM,-0.6%
same,inhibition,[15]; compound 0.001 µM,-8%
same,inhibition,[15]; compound 0.02 µM,-6.9%
same,inhibition,[16]; compound 0.001 µM,-4.8%
same,inhibition,[16]; compound 0.02 µM,-2.1%
same,inhibition,[17]; compound 0.001 µM,15.6%
same,inhibition,[17]; compound 0.02 µM,-0.9%
same,inhibition,[18]; compound 0.001 µM,2.6%
same,inhibition,[18]; compound 0.02 µM,12.9%
same,inhibition,[19]; compound 0.001 µM,4.5%
same,inhibition,[19]; compound 0.02 µM,8.8%
same,inhibition,[20]; compound 0.001 µM,-5.3%
same,inhibition,[20]; compound 0.02 µM,-4.6%
same,inhibition,[21]; compound 0.001 µM,-5.4%
same,inhibition,[21]; compound 0.02 µM,-2.8%
same,inhibition,[22]; compound 0.001 µM,3%
same,inhibition,[22]; compound 0.02 µM,3.9%
same,inhibition,[23]; compound 0.001 µM,-2.2%
same,inhibition,[23]; compound 0.02 µM,2.9%
same,inhibition,[24]; compound 0.001 µM,-4.6%
same,inhibition,[24]; compound 0.02 µM,-6.7%
same,inhibition,[25]; compound 0.001 µM,-4.5%
same,inhibition,[25]; compound 0.02 µM,-3.6%
same,inhibition,[26]; compound 0.001 µM,-5%
same,inhibition,[26]; compound 0.02 µM,4.8%
same,inhibition,[27]; compound 0.001 µM,0%
same,inhibition,[27]; compound 0.02 µM,-3.4%
same,inhibition,[28]; compound 0.001 µM,-3.5%
same,inhibition,[28]; compound 0.02 µM,12.9%
same,inhibition,[29]; compound 0.001 µM,-5.1%
same,inhibition,[29]; compound 0.02 µM,-5.4%
same,inhibition,[30]; compound 0.001 µM,-7%
same,inhibition,[30]; compound 0.02 µM,-4.4%
same,inhibition,[31]; compound 0.001 µM,-5.6%
same,inhibition,[31]; compound 0.02 µM,-4.2%
same,inhibition,[32]; compound 0.001 µM,-3.2%
same,inhibition,[32]; compound 0.02 µM,-0.8%
same,inhibition,[33]; compound 0.001 µM,-1.2%
same,inhibition,[33]; compound 0.02 µM,-2%
CCN(CC)CCNC(=O)c1c(C)[nH]c(/C=C2\C(=O)Nc3ccc(F)cc32)c1C,inhibition,[1]; compound 0.2 µM,46%
same,inhibition,[1]; compound 4.0 µM,90%
same,inhibition,[4]; compound 0.2 µM,39.2%
same,inhibition,[4]; compound 4.0 µM,89.7%
same,inhibition,[5]; compound 0.2 µM,12.5%
same,inhibition,[5]; compound 4.0 µM,74.1%
same,inhibition,[6]; compound 0.2 µM,75.7%
same,inhibition,[6]; compound 4.0 µM,101%
same,inhibition,[7]; compound 0.2 µM,23.8%
same,inhibition,[7]; compound 4.0 µM,89.2%
same,inhibition,[8]; compound 0.2 µM,0%
same,inhibition,[8]; compound 4.0 µM,20.7%
same,inhibition,[9]; compound 0.2 µM,6.8%
same,inhibition,[9]; compound 4.0 µM,37.7%
same,inhibition,[10]; compound 0.2 µM,99.7%
same,inhibition,[10]; compound 4.0 µM,101%
same,inhibition,[11]; compound 0.2 µM,72.4%
same,inhibition,[11]; compound 4.0 µM,101%
same,inhibition,[12]; compound 0.2 µM,85.7%
same,inhibition,[12]; compound 4.0 µM,101%
same,inhibition,[13]; compound 0.2 µM,78.8%
same,inhibition,[13]; compound 4.0 µM,102%
same,inhibition,[14]; compound 0.2 µM,-4%
same,inhibition,[14]; compound 4.0 µM,17.8%
same,inhibition,[15]; compound 0.2 µM,-6.9%
same,inhibition,[15]; compound 4.0 µM,-20.4%
same,Ki,[16],52 nM
same,inhibition,[16]; compound 0.2 µM,65.6%
same,inhibition,[16]; compound 4.0 µM,97.9%
same,inhibition,[17]; compound 0.2 µM,0.9%
same,inhibition,[17]; compound 4.0 µM,48.4%
same,inhibition,[19]; compound 0.2 µM,82.6%
same,inhibition,[19]; compound 4.0 µM,100%
same,inhibition,[20]; compound 0.2 µM,15%
same,inhibition,[20]; compound 4.0 µM,76.1%
same,inhibition,[21]; compound 0.2 µM,53.9%
same,inhibition,[22]; compound 0.2 µM,-2%
same,inhibition,[22]; compound 4.0 µM,7.8%
same,inhibition,[23]; compound 0.2 µM,16.6%
same,inhibition,[23]; compound 4.0 µM,62.5%
same,inhibition,[24]; compound 0.2 µM,1.2%
same,inhibition,[24]; compound 4.0 µM,17.6%
same,inhibition,[26]; compound 0.2 µM,64.4%
same,inhibition,[26]; compound 4.0 µM,98.7%
same,inhibition,[27]; compound 0.2 µM,10.3%
same,inhibition,[27]; compound 4.0 µM,62.6%
same,inhibition,[28]; compound 0.2 µM,36.7%
same,inhibition,[28]; compound 4.0 µM,85.9%
same,inhibition,[29]; compound 0.2 µM,-0.6%
same,inhibition,[29]; compound 4.0 µM,35.3%
same,inhibition,[30]; compound 0.2 µM,91.8%
same,inhibition,[30]; compound 4.0 µM,96.9%
same,inhibition,[31]; compound 0.2 µM,8.2%
same,inhibition,[31]; compound 4.0 µM,66.9%
same,inhibition,[32]; compound 0.2 µM,19.8%
same,inhibition,[32]; compound 4.0 µM,82%
same,inhibition,[33]; compound 0.2 µM,82.2%
same,inhibition,[33]; compound 4.0 µM,100%

# From the kinase profiling compilation of Christmann-Franck et al. (2016)
